Data from publication PMC10893082, “Development and Optimization of Andrographis paniculata Extract-Loaded Self-Microemulsifying Drug Delivery System Using Experimental Design Model” (Pharmaceutics, 2024).
In brackets after ≈: the same amount, converted by molar mass.

Tests used:
[1] = set-up: method as in ref 53, Kim et al., (2019); conditions: Kim et al., (2019), cited from earlier work
physchem = type: physicochemical
Description: To find the solubility of AGP in the optimized SMEDDS (highest amount of AGP that can be loaded into the optimized SMEDDS), an excess amount of A. paniculata extract was added to the 1.5 mL of the optimized SMEDDS and shaken at 37 °C 120 rpm for 72 h in an incubator shaker. Then, the AGPE-loaded optimized SMEDDS was centrifuged at 14,000 rpm for 30 min to separate the extract powder from the AGP-extracted SMEDDS. The supernatant was collected and diluted with methanol before the analysis of AGP content using HPLC. HPLC analysis with UV detection was used to quantify the content of AGP. An Agilent® 1200 (Santa Clara, CA, USA) with an Agilent® ZORBAX Eclipse XDB-C18 (4.6 × 150 mm, 5 µm) column was used. The mobile phase was methanol:water (65:35), and the injection volume was 20 µL. The flow rate was set at 0.8 mL/min, and the detection wavelength was 228 nm. The standard curve of AGP was constructed, ranging from 5 to 200 µg/mL.

SARS-CoV-2 = test system: SARS-CoV-2; set-up: method as in ref 6, Sa-ngiamsuntorn et al., (2021); conditions: Sa-ngiamsuntorn et al., (2021); cited from earlier work

Structure (SMILES) | Time within which dissolution was completed ([1]; SMEDDS formulation) [min] | Drug powder dissolved ([1]; drug powder, after 60 min) [%] | solubility (physchem) [mg/mL] | solubility at 72 h (physchem; 37 °C, thermodynamic from solid) [mg/mL] | anti-SARS-CoV-2 activity, IC50 (SARS-CoV-2)
CN(Cc1cnc2nc(N)nc(N)c2n1)c1ccc(C(=O)N[C@@H](CCC(=O)O)C(=O)O)cc1 [methotrexate] | ≤ 20 | 53 | – | – | –
C=C1CC[C@@H]2[C@](C)(CO)[C@H](O)CC[C@@]2(C)[C@@H]1C/C=C1/C(=O)OC[C@H]1O [AGP, andrographolide] | – | – | ~42 (≈ 120 mM) | ~38 (≈ 108 mM) | equivalent to the antiviral agent remdesivir
